# Source: patent US4692433A, “Method and composition for regulating serum calcium levels of mammals” (The Regents of the University of California, priority 1985, dated 1987)
# Legend:
# fasted normal rats = assay: Serum calcium change after oral administration of salmon calcitonin preparations; assay type: in vivo, rat
# Protocol: (§1) The polypeptide hormone is incorporated into the liposome as follows: the phospholipid components are dissolved in an organic solvent such as chloroform. The solvent is then removed to produce a lipid film. A buffer solution containing the polypeptide hormone is then added and mixed to form a suspension of the phospholipid film and polypeptide hormone. The suspension is then sonicated to form the liposome-entrapped polypeptide hormone. The suspension is then centrifuged at 120,000 times g for 16 hours to obtain a pellet consisting of liposome-entrapped hormone while the supernatant contains the unentrapped hormone. The liposomes in the pellet are then taken up in a small amount of buffer and subsequently used to influence calcium homestasis by oral administration.
# Purified salmon and human calcitonin or human parathyroid hormone (1-34 amino acid fragment) were incorporated into liposomes consisting of natural or synthetic phospholipids and positively-charged amine-containingamphiphile. Liposomes containing the entrapped hormones were isolated by centrifugation, resuspended in buffer and administered by stomach tube to fasted normal rats (calcitonin) or fasted parathyroidectomized rats (parathyroid hormone). The serum calcium was determined at various time intervals in treated and untreated animals to assess the effect of the respective preparations. […]
# [1] = system: fasted parathyroidectomized rats; assay: Serum calcium change after oral administration of PTH preparations by stomach tube; assay type: in vivo, rat
# Protocol: as §1
# Purified salmon and human calcitonin or human parathyroid hormone (1-34 amino acid fragment) were incorporated into liposomes consisting of natural or synthetic phospholipids and positively-charged amine-containingamphiphile. Liposomes containing the entrapped hormones were isolated by centrifugation, resuspended in buffer and administered by stomach tube to fasted normal rats (calcitonin) or fasted parathyroidectomized rats (parathyroid hormone). The serum calcium was determined at various time intervals in treated and untreated animals to assess the effect of the respective preparations.
# 450 micromoles of egg phosphatidylcholine (ePC) and 50 micromoles of stearylamine (SA) were dissolved in 2 to 3 ml of anhydrous chloroform placed in a 30 ml glass stopper tube and the solvent was removed in vacuo. To the thin film of lipid remaining on the wall of the tube was added 5.0 ml of buffer (20 mM NaCl containing 5 mM Tris, pH 7.4) containing 1 mg human PTH (hPTH 1-34) and 1×10^6 CPM of I^125 -human PTH tracer (hPTH 1-34). The buffer was mixed at room temperature for 5 minutes using a vortex mixer.
# After vortexing the mixture was sonicated for 3 minutes at room temperature using the cuphorn of a Heat Systems Ultrasonics sonicator at maximal output. […]
Compound,enhancement of the calcitonin effect on serum calcium by additive (in words) (fasted normal rats),"Change in serum Ca2+ ([1]; Table 2: oral, 40 μg, after 2 hr, triplicate, mean ± Std. error of mean)","Change in serum Ca2+ ([1]; Table 3: 2 hours after oral administration to rats, 40 μg PTH, values marked (3) are triplicate mean ± Std. error of mean) [mg/dL]","effect on serum calcium (in words) ([1]; oral administration to rats, equivalent dose)"
CC(=O)Oc1ccccc1C(=O)O [aspirin],enhances slightly the effect of free CT,,,
"Free PTH: free human parathyroid hormone, 1-34 amino acid fragment, given orally (SVSEIQLMHNLGKHLNSMERVEWLRKKLQDVHNF; Parathyroid hormone; UniProt P01270 32-65, looked up, fragment)",,+0.08 0.25 mg/dl,-0.05,no effect
